Reference: US9255071B2, “Compounds having antibacterial activity, process for their preparation and pharmaceutical compositions comprising them” (Consejo Nacional de Investigaciones Cientificas y Técnicas …, priority 2012, dated 2016)
In brackets after ≈: the same amount, converted by molar mass. Values belong to the compound of their own block, whether it stands above or below them.

Columns and labels:
Streptococcus pneumoniae [1] = settings: Streptococcus pneumoniae ATCC 10015; reference antibiotic according to WHONET; cited from earlier work
Acinetobacter guillouiae = Acinetobacter guillouiae ATCC 11171; reference antibiotic according to WHONET; in µg/mL; cited from earlier work
Shigella flexneri [2] = system: Shigella flexneri; set-up: unit not given beside the values; settings: Shigella flexneri ATCC 11836; reference antibiotic according to WHONET; cited from earlier work
Shigella boydii [3] = system: Shigella boydii; set-up: unit not given beside the values; settings: Shigella boydii ATCC 12027; reference antibiotic according to WHONET; cited from earlier work
Staphylococcus Aureus = Staphylococcus Aureus ATCC 29737; reference antibiotic according to WHONET; in µg/mL; cited from earlier work
Enterococcus faecalis = Enterococcus faecalis ATCC 29212; reference antibiotic according to WHONET; in µg/mL; cited from earlier work
Mycobacterium smegmatis = test: Determination of the Minimum Inhibitory Concentration, M. smegmatis; assay type: cell-based; settings: Mycolicibacterium smegmatis, ATCC607; M. smegmatis (ATCC 607), 72 h incubation, 1×10^5 CFU/ml inoculum
Description: (§1) The Minimum Inhibitory Concentration (MIC), which is defined as the lowest antimicrobial agent concentration inhibiting the visible growth of a microorganism following its incubation, was subsequently determined.
(§2) For the purpose of such determination, the compounds under study were tested on the strains listed in Table 3 with the antibiotics (AB) stated as reference in the table.
(§3) The test was conducted on a plate on the basis of a 1×10^5 CFU/ml inoculum concentration, with negative, positive and sterility controls being simultaneously performed. Different concentrations of the compounds under study were tested, as shown on the last column included in Table 3 (working solution).
(§4) Following incubation at 32.5±2.5° C. for a 24 h period (48 h in the case of C. sporogenes and 72 h in the case of M. smegmatis), the plates were visually read. The appearance of turbidity and/or the formation of a growth point at the microtube bottom were held as a positive result.

Clostridium sporogenes = test: Determination of the Minimum Inhibitory Concentration, C. sporogenes; assay type: cell-based; settings: ATCC19404, C. sporogenes (ATCC 19404), 48 h incubation, 1×10^5 CFU/ml inoculum
Description: as §1, §2, §3, §4

Streptococcus pneumoniae [4] = test: Determination of the Minimum Inhibitory Concentration, S. pneumoniae; assay type: cell-based; settings: ATCC10015, S. pneumoniae (ATCC 10015), 24 h incubation, 1×10^5 CFU/ml inoculum
Description: as §1, §2, §3, §4

Shigella flexneri [5] = test: Determination of the Minimum Inhibitory Concentration, S. flexneri; assay type: cell-based; settings: ATCC11836, S. flexneri (ATCC 11836), 24 h incubation, 1×10^5 CFU/ml inoculum
Description: as §1, §2, §3, §4

Shigella boydii [6] = test: Determination of the Minimum Inhibitory Concentration, S. boydii; assay type: cell-based; settings: ATCC12027, S. boydii (ATCC 12027), 24 h incubation, 1×10^5 CFU/ml inoculum
Description: as §1, §2, §3, §4

- MIC (Mycobacterium smegmatis): 8 µg/mL (≈ 26.9 µM)
- MIC (Streptococcus pneumoniae [4]): 64 µg/mL (≈ 215 µM)
Structure (SMILES): COc1ccc(/C=C/C(=O)NCCC(C)C)cc1C(F)F [compound 6]

- MIC (Streptococcus pneumoniae [4]): 64 µg/mL (≈ 129 µM)
Structure (SMILES): COc1ccc(/C=C/C(=O)NCCCNC(=O)/C=C/c2ccc(OC)c(C(F)F)c2)cc1C(F)F [compound 7]

- MIC (Mycobacterium smegmatis): 32 µg/mL (≈ 146 µM)
Structure (SMILES): COc1ccc(/C=C/C(=O)NC(C)C)cc1 [compound 8]

- MIC (Mycobacterium smegmatis): 32 µg/mL (≈ 137 µM)
Structure (SMILES): COc1ccc(/C=C/C(=O)NC(C)C)cc1C [compound 9]

- MIC (Mycobacterium smegmatis): 64 µg/mL (≈ 215 µM)
Structure (SMILES): CC(=O)Oc1ccc(/C=C/C(=O)NC(C)C)cc1C(F)F [entry 3]

More lines, now with the values behind:

Structure (SMILES): CC1(C)S[C@@H]2[C@H](NC(=O)[C@H](N)c3ccccc3)C(=O)N2[C@H]1C(=O)O [Ampicillin (sodium), Ampicillin]
- MIC (for WHO antibiotics) (Streptococcus pneumoniae [1]): ≦0.5

Structure (SMILES): COc1ccc(C=CC(=O)N2CCN(C(=O)C=Cc3ccc(OC)c(C(F)F)c3)CC2)cc1C(F)F [Example 6, N,N′-bis[3-(difluoromethyl)-4-methoxy-cinnamoyl]piperazine]
- melting point: 259 to 261 °C

Structure (SMILES): COc1ccc(C=CC(=O)N2CCOCC2)cc1C(F)F [Example 12, N-[3-(difluoromethyl)-4-methoxy-cinnamoyl]morpholine]
- melting point: 119 °C

Structure (SMILES): CN(C)c1ccc(O)c2c1C[C@H]1C[C@H]3[C@H](N(C)C)C(O)=C(C(N)=O)C(=O)[C@@]3(O)C(O)=C1C2=O [Minocyclin]
- MIC (for WHO antibiotics) (Acinetobacter guillouiae): 0.06-8.0

Structure (SMILES): C[C@@H]1O[C@@H]1P(=O)(O)O [Phosphomycin]
- MIC (for WHO antibiotics) (Shigella flexneri [2]): ≦4.0
- MIC (for WHO antibiotics) (Shigella boydii [3]): ≦4.0

Structure (SMILES): CN[C@H](CC(C)C)C(=O)N[C@H]1C(=O)N[C@@H](CC(N)=O)C(=O)N[C@H]2C(=O)N[C@H]3C(=O)N[C@H](C(=O)N[C@H](C(=O)O)c4cc(O)cc(O)c4-c4cc3ccc4O)[C@H](O)c3ccc(c(Cl)c3)Oc3cc2cc(c3O[C@@H]2O[C@H](CO)[C@@H](O)[C@H](O)[C@H]2O[C@H]2C[C@](C)(N)[C@H](O)[C@H](C)O2)Oc2ccc(cc2Cl)[C@H]1O [Vancomycin]
- MIC (for WHO antibiotics) (Staphylococcus Aureus): 0.5-2.0
- MIC (for WHO antibiotics) (Enterococcus faecalis): 1.0-4.0

Structure (SMILES): COc1ccc(/C=C/C(=O)Nc2ccccc2)cc1C(F)F [compound 1]
- MIC (Mycobacterium smegmatis): 64 µg/mL (≈ 211 µM)

Structure (SMILES): COc1ccc(/C=C/C(=O)NC(C)C)cc1C(F)F [compound 2]
- MIC (Mycobacterium smegmatis): 8 µg/mL (≈ 29.7 µM)

Structure (SMILES): COc1ccc(/C=C/C(=O)NNC(=O)c2ccncc2)cc1C(F)F [compound 4]
- MIC (Mycobacterium smegmatis): 64 µg/mL (≈ 184 µM)
- MIC (Clostridium sporogenes): 64 µg/mL (≈ 184 µM)

Structure (SMILES): COc1ccc(/C=C/C(=O)NCC(C)C)cc1C(F)F [compound 5]
- MIC (Mycobacterium smegmatis): 32 µg/mL (≈ 113 µM)

Structure (SMILES): COc1ccc(/C=C/C(=O)NC(C)C)cc1O [compound 10]
- MIC (Shigella flexneri [5]): 32 µg/mL (≈ 136 µM)
- MIC (Shigella boydii [6]): 32 µg/mL (≈ 136 µM)
